Source: patent publication US20210052741A1, “GENE THERAPY METHODS AND COMPOSITIONS USING AUXOTROPHIC REGULATABLE CELLS” (AUXOLYTIC LTD, priority 2018, published 2021)
Several values for one entry are separate records, joined by “and”; a condition that tells them apart may be missing. Identical values can stand only once.

Columns and labels:
[1] = tested on: mock edited T cells; assay: Cell counts after recovery post-electroporation; type: cell-based, human; conditions: 4 days recovery post electroporation, no serum, with 5-FOA
Description: (§1) K562 cells (acquired from ATCC) and Nalm6 cells (kindly provided by C. Mackall) were cultured in RPMI 1640 (HyClone) supplemented with 10% bovine growth serum, 2 mM L-glutamine and 100 U/ml Penicillin and 100 U/ml Streptomycin. T cells were either used fresh after isolation from buffy coats obtained from healthy donors. T cells were isolated through a Ficoll density gradient centrifugation followed by magnetic enrichment using the Pan T Cell Isolation Kit (Miltenyi Biotec).
(§2) Cells were cryopreserved in BAMBANKER™ medium. After thawing cells were cultured at 37° C., 5% CO2 in X-Vivo 15 (Lonza) supplemented with or without 5% human serum (Sigma-Aldrich) and […] recombinant IL-2 (Peprotech) and 10 ng/ml human recombinant IL-7 (BD Biosciences). […]
(§3) Genomic DNA was harvested using QUICKEXTRACT™ DNA Extraction Kit (Epicentre). Cells were counted on an automated cell counter using Trypan blue staining or on a CytoFLEX flow cytometer (Beckman Coulter) with automatic plate reader using COUNTBRIGHT™ beads (ThermoFisher) as a reference for normalizing the values. Alternatively, cells were analyzed after staining with fluorochrome-labelled antibodies (Biolegend) on an ACCURI™ C6 flow cytometer (BD Biosciences), which also measures volumes, or a FACS ARIA™ II SORP cell sorter (BD Biosciences). Data was analyzed using Excel (Microsoft) and FlowJo software (Tree Star). […]

[2] = tested on: UMPS knockout T cells; assay: Cell counts after recovery post-electroporation; type: cell-based, human; conditions: 4 days recovery post electroporation, no serum, with 5-FOA
Description: as §1, §2, §3

[3] = tested on: GFP- UMPS^WT/WT hESCs; assay: 5-FOA resistance in hESC co-culture (FACS); type: cell-based, human; conditions: for Viable cell counts, GFP−: co-culture
Description: (§4) To assess resistance to 5-FOA, the UMPS-KO hESCs were genetically engineered to express GFP from an expression cassette integrated into a safe-harbor locus for easier identification in co-culture with UMPS-WT cells.
(§5) These UMPS^KO/KO hESCs were mixed with UMPS^WT/WT cells that were not expressing GFP and followed up by fluorescence-activated cell sorting (FACS) analysis in the presence of different concentrations of 5-FOA. Table 16 provides counts of viable GFP+ and GFP− cells after culture with different 5-FOA concentrations.

[4] = tested on: GFP+ UMPS^KO/KO hESCs; assay: 5-FOA resistance in hESC co-culture (FACS); type: cell-based, human; conditions: for Viable cell counts, GFP+: co-culture
Description: as §4, §5

[5] = tested on: Mock T cells; assay: Uracil auxotrophy growth assay after 5-FOA selection; type: cell-based, human; conditions: after 4 days 5-FOA selection, 4 days in supplemented media, without serum
Description: To assay whether or not the cells selected for by 5-FOA treatment were uracil auxotrophs, mock or UMPS targeted T cells were exposed to 5-FOA as shown in Example 4. Following 4 days of 5-FOA selection, the population of cells was split into an uracil containing media (UMP, uridine or both) and an uracil deficient media. A growth assay was subsequently performed by cell counting after following 4 days incubation in test media (Day 8) (FIG. 4A). In all cases, cell growth in the mock targeted cell cultures was negligible and independent of uracil source supplementation—indicating successful killing of non-UMPS targeted cells during the 5-FOA selection step (FIG. 4B-FIG. 4D).

[6] = tested on: UMPS^KO/KO/GFP^+ K562 cells; assay: Auxotrophy assay in K562 cells; type: cell-based, human
Description: The sorted UMPS^KO/KO/GFP^+ cell population were subjected to assays evaluating their auxotrophy and their resistance to 5-FOA. The cells were split into samples of equal numbers and cultured in the presence of different concentrations of Uridine or without. […] Cell growth was inhibited at a lower concentration (25 μg/ml) while cell numbers declined with a lower concentration or no Uridine (FIG. 6E).

[7] = tested on: Mock T cells; assay: Growth time course with/without UMP or uridine; type: cell-based, human; conditions: metabolite 250 μg/ml
Description: (§6) Genomic DNA was harvested using QUICKEXTRACT™ DNA Extraction Kit (Epicentre). Cells were counted on an automated cell counter using Trypan blue staining or on a CytoFLEX flow cytometer (Beckman Coulter) with automatic plate reader using COUNTBRIGHT™ beads (ThermoFisher) as a reference for normalizing the values. Alternatively, cells were analyzed after staining with fluorochrome-labelled antibodies (Biolegend) on an ACCURI™ C6 flow cytometer (BD Biosciences), which also measures volumes, or a FACS ARIA™ II SORP cell sorter (BD Biosciences). Data was analyzed using Excel (Microsoft) and FlowJo software (Tree Star).
(§7) T Cells were electroporated and edited as in Example 2 and allowed to recover for a 4-day period in medium with serum, uridine, and UMP. On day 4, cells were shifted to UMP, uridine, or uracil source media.
(§8) To evaluate whether the UMPS knockout leads to differential cell proliferation if cultured without the addition of Uridine or Uridine monophosphate (UMP), the cell counts in culture were followed over time by automatic cell counting with Trypan blue staining. UMPS knockout led to lower cell counts from day 2 after electroporation, compared to cells that were mock electroporated or electroporated using Cas9 targeting a different genomic locus (i.e., CCR5) (FIG. 5B).

[8] = tested on: CCR5 knockout T cells; assay: Growth time course with/without UMP or uridine; type: cell-based, human; conditions: metabolite 250 μg/ml
Description: as §6, §7, §8

[9] = tested on: UMPS knockout T cells; assay: Growth time course with/without UMP or uridine; type: cell-based, human
Description: as §6, §7, §8

[10] = oral; cited from earlier work
[11] = UMPS knockout, metabolite 250 μg/ml

## O=C(O)c1[nH]c(=O)[nH]c(=O)c1F [5-FOA, 5-fluoroorotic acid]
[1]
  Intact cells (absolute): 580
[2]
  Intact cells (absolute): 395
[3]; all tested concentrations (0.25-25 μg/ml)
  sensitivity of UMPS-WT cells to 5-FOA: sensitive to all tested 5-FOA concentrations
[3]; 5-FOA 0.25 μg/ml
  Viable cell counts, GFP−: 5180
[3]; 5-FOA 2.5 μg/ml
  Viable cell counts, GFP−: 687.5
[3]; 5-FOA 25 μg/ml
  Viable cell counts, GFP−: 334.02
[4]; 0.25 μg/ml
  tolerance of UMPS-KO cells to 5-FOA: tolerated the concentration of 0.25 μg/ml well
[4]; 5-FOA 0.25 μg/ml
  Viable cell counts, GFP+: 142820
[4]; 5-FOA 2.5 μg/ml
  Viable cell counts, GFP+: 11812.5
[4]; 5-FOA 25 μg/ml
  Viable cell counts, GFP+: 8455.98
[4]; concentrations above 0.25 μg/ml
  proliferation of UMPS-KO cells in 5-FOA: impaired proliferation at higher concentrations
[4]; groups with 5-FOA (54.8% without 5-FOA)
  cells GFP+: 95.0%

## O=c1ccn([C@@H]2O[C@H](CO)[C@@H](O)[C@H]2O)c(=O)[nH]1 [Uridine]
[5]
  Cells counts on Day 8: 1249 and 687
[6]; 2.5 ug/ml Uridine
  Number of cells per ml, Day 1: 57.83 cells per ml and 49.52 cells per ml and 40.56 cells per ml
[6]; 25 ug/ml Uridine
  Number of cells per ml, Day 1: 60.92 cells per ml and 69.81 cells per ml and 58.10 cells per ml
[6]; 250 ug/ml Uridine
  Number of cells per ml, Day 1: 83.41 cells per ml and 109.11 cells per ml and 64.28 cells per ml
  Number of cells per ml, Day 8: 631.12 cells per ml and 629.35 cells per ml and 318.17 cells per ml
[6]; Uridine 25 μg/ml
  cell growth: inhibited
[6]; Uridine 250 μg/ml
  cell growth: expanded rapidly
[6]; lower Uridine concentration (2.5 μg/ml) or no Uridine
  cell numbers: declined
[7]
  Cell density, Day 1: 9.78E+05 cells per ml
  Cell density, Day 2: 1.98E+06 cells per ml
  Cell density, Day 4: 3.90E+06 cells per ml
  Cell density, Day 6: 4.91E+06 cells per ml
  Cell density, Day 8: 4.09E+06 cells per ml
[8]
  Cell density, Day 1: 9.67E+05 cells per ml
  Cell density, Day 2: 1.71E+06 cells per ml
  Cell density, Day 4: 3.70E+06 cells per ml
  Cell density, Day 6: 3.92E+06 cells per ml
  Cell density, Day 8: 3.96E+06 cells per ml
[9]; [11]
  Cell density, Day 1: 7.69E+05 cells per ml
  Cell density, Day 2: 1.59E+06 cells per ml
  Cell density, Day 4: 3.43E+06 cells per ml
  Cell density, Day 6: 3.79E+06 cells per ml
  Cell density, Day 8: 3.17E+06 cells per ml
  Number of viable cells per ml, Day 1: 769000 cells per ml
  Number of viable cells per ml, Day 2: 1590000 cells per ml
  Number of viable cells per ml, Day 4: 3430000 cells per ml
  Number of viable cells per ml, Day 6: 3790000 cells per ml
  Number of viable cells per ml, Day 8: 3170000 cells per ml
[9]; exogenous uracil source 250 μg/ml
  growth of UMPS edited culture: rescued the growth of an UMPS edited culture to the same level as mock edited cells
[9]; supplemented at 250 μg/ml
  cell proliferation after UMPS knockout: not impaired
[10]
  absorption and breakdown: poorly absorbed in the gastrointestinal tract and broken down in the liver
